Key:
signal receptor [1] = molecular target: T1, signal receptor (Rattus norvegicus, UniProt Q9R0C9); settings: co-injection; (+)-pentazocine 2.5 mg/kg, haloperidol 0.13 mg/kg
Method: (§1) FIG. 4A. […] One out of three independent experiments. Triplicate incubations with standard deviations. Solid line, fit IC50 function. Upper broken line, binding of 2.9 nM [^3H](+)pentazocine alone. […] Baseline and blockade (circles) as in FIGS. 2B and 2C. Squares, co-injection of 2.5 mg/kg (+)-pentazocine.

NMDA-rich brain regions [2] = molecular target: T2, NMDA-rich brain regions (Rattus norvegicus, UniProt P35439+Q00960); assay: PET scans of rat brain with [18F]WMS1410; assay type: in vivo, Wister rat
T2 construct: from tissue; host or cells: brain of living Wistar rats (in vivo PET)
T2 sequence (Q00960 27-1482, other chains not shown): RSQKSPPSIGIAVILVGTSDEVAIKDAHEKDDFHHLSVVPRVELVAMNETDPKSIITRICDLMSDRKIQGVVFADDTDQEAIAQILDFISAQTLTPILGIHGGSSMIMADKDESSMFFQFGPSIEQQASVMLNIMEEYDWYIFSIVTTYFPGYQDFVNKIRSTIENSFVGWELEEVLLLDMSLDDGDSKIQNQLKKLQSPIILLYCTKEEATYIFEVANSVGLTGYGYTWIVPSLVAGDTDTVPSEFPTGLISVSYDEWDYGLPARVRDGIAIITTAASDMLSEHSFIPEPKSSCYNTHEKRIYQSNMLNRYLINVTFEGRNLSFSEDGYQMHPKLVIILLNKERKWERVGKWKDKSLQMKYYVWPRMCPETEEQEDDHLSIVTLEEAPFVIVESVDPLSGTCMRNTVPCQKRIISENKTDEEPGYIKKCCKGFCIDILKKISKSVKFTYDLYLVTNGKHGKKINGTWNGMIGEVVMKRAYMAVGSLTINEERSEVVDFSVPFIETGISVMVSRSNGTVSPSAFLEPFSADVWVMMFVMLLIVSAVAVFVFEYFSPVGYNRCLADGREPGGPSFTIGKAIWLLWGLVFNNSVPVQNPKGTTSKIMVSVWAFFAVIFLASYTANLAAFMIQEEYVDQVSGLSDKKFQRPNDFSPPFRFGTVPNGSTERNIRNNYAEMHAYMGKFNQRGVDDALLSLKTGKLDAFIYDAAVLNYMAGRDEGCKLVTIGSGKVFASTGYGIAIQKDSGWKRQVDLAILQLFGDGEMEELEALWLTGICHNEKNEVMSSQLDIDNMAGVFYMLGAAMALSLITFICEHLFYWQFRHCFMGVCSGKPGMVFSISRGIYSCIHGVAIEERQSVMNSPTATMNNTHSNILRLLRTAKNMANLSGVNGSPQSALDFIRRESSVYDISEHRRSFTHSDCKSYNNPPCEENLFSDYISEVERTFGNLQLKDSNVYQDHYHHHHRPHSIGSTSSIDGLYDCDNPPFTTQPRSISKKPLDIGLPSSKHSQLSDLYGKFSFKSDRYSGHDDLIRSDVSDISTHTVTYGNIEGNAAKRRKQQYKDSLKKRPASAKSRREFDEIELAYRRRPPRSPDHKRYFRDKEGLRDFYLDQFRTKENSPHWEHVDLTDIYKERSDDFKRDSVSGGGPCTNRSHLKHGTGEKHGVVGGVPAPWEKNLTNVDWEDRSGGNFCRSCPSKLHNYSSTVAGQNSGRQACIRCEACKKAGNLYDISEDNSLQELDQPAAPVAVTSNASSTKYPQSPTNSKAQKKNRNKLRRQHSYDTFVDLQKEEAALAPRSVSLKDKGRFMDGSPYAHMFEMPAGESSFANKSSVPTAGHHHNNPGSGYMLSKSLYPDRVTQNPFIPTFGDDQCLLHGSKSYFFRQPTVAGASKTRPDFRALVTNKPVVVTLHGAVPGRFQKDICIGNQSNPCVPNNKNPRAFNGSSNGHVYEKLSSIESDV
Method: (§2) Wistar rats (331-353 g) were under isoflurane anaesthesia (2.5-5% in oxygen/air 1/1) for all procedures and temperature and respiration were controlled with warm air and by adjusting the isoflurane dosage. A dynamic PET scan was started with a calibrated VISTA eXplore/Super Argus PET/CT scanner (Sedecal, Madrid, Sprain; axial field of view 4.8 cm) and at time zero, 32-52 MBq (0.44-0.78 nmol/kg, 250-300 μL) [^11C]NB1 were injected via a tail vein.
Similar PET experimental procedure as mentioned above for [^11C]WMS1405 was applied for imaging [^18F]WMS1410 with Wister rat.

GluN1/GluN2B NTD = molecular target: T3, GluN1/GluN2B NTD (Rattus norvegicus, UniProt P35439+Q00960); assay: In vitro autoradiography of [11C]NB1 on rat brain slices; assay type: binding; settings: for blocking of [11C]NB1 binding to rat brain slices: 10 μM competitor with 5.4 nM [11C]NB1
T3 construct: horizontal rat brain slices (20 μm) of a male Wistar rat; from tissue; host or cells: rat brain slices (male Wistar rat)
T3 sequence (Q00960 27-1482, other chains not shown): as above
Method: After incubation, the slices were washed with HEPES/BSA for 8 min and twice with HEPES buffer for 3 min followed by two 5-second rinses with water. The dried slices were exposed for 20 min to a phosphorimager plate, read in a phosphorimager BAS5000 (Fuji, Tokyo, Japan) and analyzed with the software AIDA v. 4.5 (Raytest Isotopenmessgerate GmbH, Germany).

NMDA-rich brain regions [3] = molecular target: T2, NMDA-rich brain regions; assay: PET scans of rat brain with [11C]WMS1405; assay type: in vivo, Wistar rats; settings: for accumulation in rat brain (PET): i.v. tail vein, 0 to 60 min p.i., baseline
Method: as §2

signal receptor [4] = settings: read-out: Kd at signal receptor; Lever et al., Synapse 2006; cited from earlier work
[5] = system: GluN2B(C,D)-containing NMDA receptors; assay: PET receptor occupancy after eliprodil administration at various doses; assay type: in vivo, rat
[6] = Garrigou-Cadenne et al. 1995; cited from earlier work
signal receptor [7] = molecular target: T1, signal receptor; assay: In vitro displacement of [3H](+)pentazocine from rat brain membranes; assay type: binding; set-up: from tissue; host or cells: rat brain membranes
Method: as §1
In vitro binding study with [^3H](+)pentazocine, a ligand for signal receptor.

T1 sequence (Q9R0C9 whole entry): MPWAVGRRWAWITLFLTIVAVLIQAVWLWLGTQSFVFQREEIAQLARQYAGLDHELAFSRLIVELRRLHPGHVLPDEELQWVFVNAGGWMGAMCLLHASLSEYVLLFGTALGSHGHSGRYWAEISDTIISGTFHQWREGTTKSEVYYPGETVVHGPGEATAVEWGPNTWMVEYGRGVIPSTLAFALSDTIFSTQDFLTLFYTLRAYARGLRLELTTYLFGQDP

CC(C)=CCN1CCC2(C)c3cc(O)ccc3CC1C2C (stereo not shown) [pentazocine]
reduction of [11C]WMS1405 binding in vivo (signal receptor [1]): reduced [^11C]WMS1405 binding to similar levels as under blocking conditions with eliprodil

OC1CN(CCCCc2ccccc2)CCc2cc(OCC[18F])ccc21 (stereo not shown) [[^18F]WMS1410]
accumulation in rat brain (PET) (NMDA-rich brain regions [2]; baseline): accumulates in NMDA-rich brain regions

C[C@H](NC(c1cccc2[nH]c(=O)c(=O)[nH]c12)P(=O)(O)O)c1ccc(Br)cc1 (stereo partly shown) [AAM077]
blocking of [11C]NB1 binding to rat brain slices (GluN1/GluN2B NTD): not

[11CH3]Oc1ccc2c(c1)CCN(CCCCc1ccccc1)CC2O (single isomer, unassigned; stereoisomer b) [Stereoisomer B(+)]
accumulation in rat brain (PET) (NMDA-rich brain regions [3]): accumulates more than the racemate

CC(C)=CCN1CC[C@]2(C)c3cc(O)ccc3C[C@H]1[C@H]2C [[^3H](+)pentazocine]
Kd (signal receptor [4]): 1.6 nM

OC(CN1CCC(Cc2ccc(F)cc2)CC1)c1ccc(Cl)cc1 (stereo not shown) [eliprodil]
blocking of [11C]NB1 binding to rat brain slices (GluN1/GluN2B NTD): blocked | blockade and displacement of [11C]WMS1405 in rat brain (PET) (NMDA-rich brain regions [3]; eliprodil 1 mg/kg, displacement 20 min after tracer injection): blocked and displaced | blockade of [18F]WMS1410 in rat brain (PET) (NMDA-rich brain regions [2]; eliprodil 1 mg/kg co-injection): blocked | receptor occupancy ([5]; at 70 μg/kg): 99% | dose for 50% receptor occupancy ([5]; brain stem (GluN2B-poor but GluN2D-rich)): 7.7 nmol/kg | dose for 50% receptor occupancy ([5]; midbrain (GluN2B-poor but GluN2D-rich)): 6.2 nmol/kg | brain/plasma ratio [6]: about 20

COc1ccc2c(c1)CCN(CCCCc1ccccc1)CC2O (stereo not shown) [WMS1405]
Ki (signal receptor [7]; 2.9 nM [3H](+)pentazocine, rat brain membranes): 1000 to 10000 nM | competition for the binding of (+)pentazocine to signal receptor (signal receptor [7]; in vitro): does not compete

[11CH3]Oc1ccc2c(c1)CCN(CCCCc1ccccc1)CC2O (stereo not shown) [[^11C]WMS1405]
binding to rat brain slices by in vitro autoradiography (GluN1/GluN2B NTD; 5.4 nM tracer, 30 min, room temperature, baseline): high binding in most brain regions | accumulation in rat brain (PET) (NMDA-rich brain regions [3]): accumulates in NMDA-rich brain regions
